Measured values from EP4616867A1, “COMBINATION OF ENDOTHELIN RECEPTOR ANTAGONIST AND GLUCOCORTICOID FOR TREATING IGA NEPHROPATHY” (Sanreno Therapeutics (Shanghai) Limited, priority 2022, dated 2024).

System: IgA nephropathy model mice
Assay: Efficacy of atrasentan, methylprednisolone and combinations in IgA nephropathy model mice (CFA-stimulated humanized IGHA1 mice); blood hIgA1, IgG, IgM
Assay type: in vivo
Conditions: IgAN mice; for IgG, Difference between pre-treatment and post-treatment value (post-treatment minus pre-treatment), Mean (SD) / IgG, Difference between pre-treatment and post-treatment value (post-treatment minus pre-treatment), Median (Q1 - Q3) / IgM, Difference between pre-treatment and post-treatment value (post-treatment minus pre-treatment), Mean (SD) / IgM, Difference between pre-treatment and post-treatment value (post-treatment minus pre-treatment), Median (Q1 - Q3) / hIgA1, Difference between pre-treatment and post-treatment value (post-treatment minus pre-treatment), Mean (SD) / hIgA1, Difference between pre-treatment and post-treatment value (post-treatment minus pre-treatment), Median (Q1 - Q3): 30 days gavage; for IgG, After treatment, Mean (SD) / IgG, After treatment, Median (Q1 - Q3) / IgM, After treatment, Mean (SD) / IgM, After treatment, Median (Q1 -Q3) / hIgA1, After treatment, Mean (SD) / hIgA1, After treatment, Median (Q1 - Q3): after 30 days gavage, atrasentan 15 mg/kg/day, methylprednisolone 5 mg/kg/day, dapagliflozin 1 mg/kg/day; for IgG, Before treatment, Mean (SD) / IgG, Before treatment, Median (Q1 - Q3) / IgM, Before treatment, Mean (SD) / IgM, Before treatment, Median (Q1 - Q3) / hIgA1, Before treatment, Mean (SD) / hIgA1, Before treatment, Median (Q1 - Q3): baseline before dosing
Excerpt: The present invention will be further described below through examples, but the examples are not meant to limit the scope of the present invention in any way. For the measurement methods of various parameters in the examples, reference should be made to Wan F, Wang H, Wang M, Lü J, Zhao M, Zhang H. Sustained release of Lactobacillus casei cell wall extract can induce a continuous and stable IgA deposition model. […] Chimeric Fusion between Clostridium Ramosum IgA Protease and IgG Fc Provides Long-Lasting Clearance of IgA Deposits in Mouse Models of IgA Nephropathy. […] The above-mentioned documents are incorporated into this application in their entirety. […] Complete Freunds adjuvant (CFA) and phosphate buffer solution (PBS) were mixed thoroughly and emulsified at a ratio of 1:1 to obtain a CFA injection that was intraperitoneally injected into 8-week-old humanized IGHA1 mice constructed in step 1. Four times the mouse body weight (4w μl) was injected every 2 weeks, administering a total of 6 injections over a time period of about 2.5 months. • 2. In this experiment, the 8-week-old humanized IgA1 mice underwent an induction period of 2 to 5 months after the final injection of CFA. Table 1 […] Each group received intraperitoneal injections of CFA injection to create a model. Upon model completion, atrasentan, methylprednisolone and/or dapagliflozin were administered as outlined below. The control group was administered an equal amount of solvent (an aqueous solution of 0.5% (w/v) methylcellulose and 0.5% (v/v) Tween 80) by gavage for 30 days. Dosing method: atrasentan (15 mg/kg/day), methylprednisolone (5 mg/kg/day), dapagliflozin (1 mg/kg/day) were administered by gavage every morning for 30 days. When co-administered, the required medicines were mixed together in the appropriate proportion (the dose of each medicine was calculated according to mouse body weight) before administration by gavage. […] Prior to dosing, once every 2 weeks during the dosing period, and on day 30 of dosing, urine creatinine, urine protein level, and albumin to creatinine ratio (ACR) were measured, and the mice checked for the presence of haematuria. Prior to dosing and on day 30 of dosing, renal tissue pathology was scored according to the Oxford classification system, IgA and C3 deposition in renal tissue was measured by immunofluorescence assay, and mice in each group were examined for cardiac pathology.

SMILES | IgG, Difference between pre-treatment and post-treatment value (post-treatment minus pre-treatment), Mean (SD) | IgG, Difference between pre-treatment and post-treatment value (post-treatment minus pre-treatment), Median (Q1 - Q3) | IgM, Difference between pre-treatment and post-treatment value (post-treatment minus pre-treatment), Mean (SD) | IgM, Difference between pre-treatment and post-treatment value (post-treatment minus pre-treatment), Median (Q1 - Q3) | hIgA1, Difference between pre-treatment and post-treatment value (post-treatment minus pre-treatment), Mean (SD) | hIgA1, Difference between pre-treatment and post-treatment value (post-treatment minus pre-treatment), Median (Q1 - Q3) | IgG, After treatment, Mean (SD) | IgG, After treatment, Median (Q1 - Q3) | IgM, After treatment, Mean (SD) | IgM, After treatment, Median (Q1 -Q3) | hIgA1, After treatment, Mean (SD) | hIgA1, After treatment, Median (Q1 - Q3) | IgG, Before treatment, Mean (SD) | IgG, Before treatment, Median (Q1 - Q3) | IgM, Before treatment, Mean (SD) | IgM, Before treatment, Median (Q1 - Q3) | hIgA1, Before treatment, Mean (SD) | hIgA1, Before treatment, Median (Q1 - Q3)
CCCCN(CCCC)C(=O)CN1C[C@H](c2ccc3c(c2)OCO3)[C@@H](C(=O)O)[C@@H]1c1ccc(OC)cc1 [Atrasentan (A), atrasentan] | 1.69(0.35) | 1.58(1.11 - 2.23) | 0.54(0.23) | 0.38(0.07 - 0.69) | 5.95 (1.50) | 4.96 (3.03 - 8.99) | 5.04(0.10) | 5.06(4.74 - 5.25) | 2.08(0.45) | 1.72(1.28 - 2.26) | 15.99( 3.40) | 12.99 (7.93 - 23.80) | 3.35(0.36) | 3.32(2.90 - 4.14) | 1.55(0.25) | 1.31(1.02 - 1.97) | 10.04 (2.46) | 7.88(4. 24 - 16.39)
C[C@H]1C[C@@H]2[C@H]([C@@H](O)C[C@@]3(C)[C@H]2CC[C@]3(O)C(=O)CO)[C@@]2(C)C=CC(=O)C=C12 [Methylprednisolone (MP), methylprednisolone] | -0.10(0.20) | -0.09(-0.28 - 0.39) | -0.04(0.08) | -0.05(-0.12 - 0.13) | -0.03( 0.70) | -0.11 (-1.97 - 2.12) | 4.75(0.81) | 3.56(3.22 - 7.06) | 1.51(0.33) | 1.08(0.80 - 2.34) | 6.63(0 .79) | 6.23( 4.78 - 8.97) | 4.85(0.94) | 3.75(3.04 - 7.83) | 1.55(0.28) | 1.31(0.90 - 2.22) | 6.66( 0.37) | 6.69(6. 12 - 7.53)
